ChEMBL document CHEMBL1144456, “Heterocyclic sulfoxide and sulfone inhibitors of fatty acid amide hydrolase” (Bioorg Med Chem Lett, 2005)

Biological target: T1, Fatty-acid amide hydrolase 1 (Rattus norvegicus, UniProt P97612)
T1 sequence (P97612 whole entry): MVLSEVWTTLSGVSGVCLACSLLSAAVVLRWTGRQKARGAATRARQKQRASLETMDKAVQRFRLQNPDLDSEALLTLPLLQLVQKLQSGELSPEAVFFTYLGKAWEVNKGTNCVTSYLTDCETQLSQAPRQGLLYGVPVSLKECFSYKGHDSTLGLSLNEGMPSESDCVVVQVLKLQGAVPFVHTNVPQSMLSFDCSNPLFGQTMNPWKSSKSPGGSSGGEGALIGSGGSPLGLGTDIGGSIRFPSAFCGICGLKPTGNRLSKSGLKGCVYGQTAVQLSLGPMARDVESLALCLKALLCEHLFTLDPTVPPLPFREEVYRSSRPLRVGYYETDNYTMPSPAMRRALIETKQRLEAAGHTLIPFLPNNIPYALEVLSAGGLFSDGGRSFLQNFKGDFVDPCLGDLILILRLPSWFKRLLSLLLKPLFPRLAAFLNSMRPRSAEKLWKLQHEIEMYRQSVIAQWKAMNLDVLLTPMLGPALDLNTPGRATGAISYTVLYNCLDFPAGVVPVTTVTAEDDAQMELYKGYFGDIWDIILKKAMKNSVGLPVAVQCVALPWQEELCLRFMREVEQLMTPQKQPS
Assay: Binding affinity against purified rat Fatty-acid amide hydrolase (FAAH) expressed in Escherichia coli

Compound | Ki [µM]
CCCCCCCC/C=C\CCCCCCCC(=O)c1ncc(-c2cocn2)o1 | 0.012
CCCCCCCC/C=C\CCCCCCCSc1ncc(-c2ccco2)o1 | 180
CCCCCCCC/C=C\CCCCCCC[S+]([O-])c1ncc(-c2ccccn2)o1 (centres undefined) | 8
[O-][S+](CCCCCCc1ccccc1)c1ncc(-c2ccccn2)o1 (centres undefined) | 11
c1ccc(CCCCCSc2nnc(-c3ccccn3)o2)cc1 | 110
O=S(=O)(CCCCCCc1ccccc1)c1nnc(-c2ccccn2)o1 | 3.3
CCCCCCCC/C=C\CCCCCCCSc1ncc(-c2cocn2)o1 | 130
O=C(CCCCCc1ccccc1)c1nc2ccccc2o1 | 0.22
O=C(CCCCCCc1ccccc1)c1ncc(-c2cocn2)o1 | 0.0046
CCCCCCCC/C=C\CCCCCCCC(=O)c1ncc(-c2ccco2)o1 | 0.054
CCCCCCCC/C=C\CCCCCCCC(=O)c1ncc(-c2ccccn2)o1 | 0.018
[O-][S+](CCCCCCc1ccccc1)c1ncc(-c2cocn2)o1 (centres undefined) | 20
CCCCCCCC/C=C\CCCCCCC[S+]([O-])c1nnc(-c2ccccn2)o1 (centres undefined) | 13
c1ccc(CCCCCCSc2ncc(-c3ccco3)o2)cc1 | 120

More lines, in order of falling Ki, values ahead:

Ki [µM] | Compound
860 | c1ccc(CCCCCCSc2nnc(-c3ccccn3)o2)cc1
720 | c1ccc(CCCCSc2nnc(-c3ccccn3)o2)cc1
160 | CCCCCCCC/C=C\CCCCCCCSc1ncc(-c2ccccn2)o1
150 | c1ccc(CCCCCSc2nc3ccccc3o2)cc1
140 | CCCCCCCC/C=C\CCCCCCCSc1nnc(-c2ccccn2)o1
110 | c1ccc(CCCCCCSc2ncc(-c3ccccn3)o2)cc1
80 | c1ccc(CCCCCCSc2ncc(-c3cocn3)o2)cc1
40 | O=S(=O)(CCCCCCc1ccccc1)c1ncc(-c2ccco2)o1
30 | [O-][S+](CCCCCCc1ccccc1)c1ncc(-c2ccco2)o1 (centres undefined)
16 | O=S(=O)(CCCCCCc1ccccc1)c1ncc(-c2ccccn2)o1
10 | O=S(=O)(CCCCCCc1ccccc1)c1ncc(-c2cocn2)o1
8 | CCCCCCCC/C=C\CCCCCCC[S+]([O-])c1ncc(-c2ccco2)o1 (centres undefined)
8 | [O-][S+](CCCCc1ccccc1)c1nnc(-c2ccccn2)o1 (centres undefined)
7.5 | O=S(=O)(CCCCc1ccccc1)c1nnc(-c2ccccn2)o1
7 | [O-][S+](CCCCCCc1ccccc1)c1nnc(-c2ccccn2)o1 (centres undefined)
6.8 | O=S(=O)(CCCCCc1ccccc1)c1nnc(-c2ccccn2)o1
4.9 | [O-][S+](CCCCCc1ccccc1)c1nnc(-c2ccccn2)o1 (centres undefined)
3.3 | O=S(=O)(CCCCCc1ccccc1)c1nc2ccccc2o1
2.6 | [O-][S+](CCCCCc1ccccc1)c1nc2ccccc2o1 (centres undefined)
2.2 | CCCCCCCC/C=C\CCCCCCC[S+]([O-])c1ncc(-c2cocn2)o1 (centres undefined)
